Test results published in patent US10004701B2, “Methods and compositions for treating infection” (UNIVERSITY OF ROCHESTER, priority 2012, dated 2018).
Counter-ions that a name gives are not always drawn. Like-named read-outs stand apart in the source and are kept apart here.

Assays:
Assay in all cases: AK assay 384-well format, Prestwick library screening
E. faecium = assay type: cell-based, Enterococcus faecium; settings: Enterococcus faecium, 3 h
[1] = tested on: S. aureus strain USA300-0114; assay type: cell-based, Staphylococcus aureus; settings: Staphylococcus aureus, USA300, 3 h
K. pneumoniae = assay type: cell-based, Klebsiella pneumoniae; settings: Klebsiella pneumoniae, 3 h
[2] = tested on: A. baumannii strain 98-37-09; assay type: cell-based, Acinetobacter baumannii; settings: Acinetobacter baumannii, 983709, 3 h
P. aeruginosa = assay type: cell-based, Pseudomonas aeruginosa; settings: Pseudomonas aeruginosa, 3 h
E. cloacae = assay type: cell-based, Enterobacter cloacae; settings: Enterobacter cloacae, 3 h
E. coli = assay type: cell-based, Escherichia coli; settings: Escherichia coli, 3 h
[3] = planktonic E. faecium, 50 μM final drug concentration, cutoff for positive-scoring molecules 3-fold increase, read-out: AK-based Prestwick Library Screening Results, E. faecium (increase in extracellular AK activity)
[4] = planktonic S. aureus, 50 μM final drug concentration, cutoff for positive-scoring molecules 3-fold increase, read-out: AK-based Prestwick Library Screening Results, S. aureus (increase in extracellular AK activity)
[5] = planktonic K. pneumoniae, 50 μM final drug concentration, cutoff for positive-scoring molecules 3-fold increase, read-out: AK-based Prestwick Library Screening Results, K. pneumoniae (increase in extracellular AK activity)
[6] = planktonic A. baumannii, 50 μM final drug concentration, cutoff for positive-scoring molecules 3-fold increase, read-out: AK-based Prestwick Library Screening Results, A. baumannii (increase in extracellular AK activity)
[7] = planktonic P. aeruginosa, 50 μM final drug concentration, cutoff for positive-scoring molecules 3-fold increase, read-out: AK-based Prestwick Library Screening Results, P. aeruginosa (increase in extracellular AK activity)
[8] = planktonic E. cloacae, 50 μM final drug concentration, cutoff for positive-scoring molecules 3-fold increase, read-out: AK-based Prestwick Library Screening Results, E. cloacae (increase in extracellular AK activity)
[9] = planktonic E. coli, 50 μM final drug concentration, cutoff for positive-scoring molecules 3-fold increase, read-out: AK-based Prestwick Library Screening Results, E. coli (increase in extracellular AK activity)
[10] = 50 μM final drug concentration, 384-well format, cutoff for positive-scoring molecules 3-fold increase, read-out: AK-based Prestwick Library Screening Results, E. faecium (increase in extracellular AK activity)
[11] = 50 μM final drug concentration, 384-well format, cutoff for positive-scoring molecules 3-fold increase, read-out: AK-based Prestwick Library Screening Results, S. aureus (increase in extracellular AK activity)
[12] = 50 μM final drug concentration, 384-well format, cutoff for positive-scoring molecules 3-fold increase, read-out: AK-based Prestwick Library Screening Results, K. pneumoniae (increase in extracellular AK activity)
[13] = 50 μM final drug concentration, 384-well format, cutoff for positive-scoring molecules 3-fold increase, read-out: AK-based Prestwick Library Screening Results, A. baumannii (increase in extracellular AK activity)
[14] = 50 μM final drug concentration, 384-well format, cutoff for positive-scoring molecules 3-fold increase, read-out: AK-based Prestwick Library Screening Results, P. aeruginosa (increase in extracellular AK activity)
[15] = 50 μM final drug concentration, 384-well format, cutoff for positive-scoring molecules 3-fold increase, read-out: AK-based Prestwick Library Screening Results, E. cloacae (increase in extracellular AK activity)
[16] = 50 μM final drug concentration, 384-well format, cutoff for positive-scoring molecules 3-fold increase, read-out: AK-based Prestwick Library Screening Results, E. coli (increase in extracellular AK activity)

C[C@@H]1CCC[C@H](C)N1NC(=O)c1ccc(Cl)c(S(N)(=O)=O)c1 [Clopamide]
fold induction at 50 µM (E. faecium; [3]): 0.9 | fold induction at 50 µM [1, 4]: 0.7 | fold induction at 50 µM (K. pneumoniae; [5]): 0.7 | fold induction at 50 µM [2, 6]: 0.8 | fold induction at 50 µM (P. aeruginosa; [7]): 0.8 | fold induction at 50 µM (E. cloacae; [8]): 1 | fold induction at 50 µM (E. coli; [9]): 0.8

Clc1ccc(C(OCCN2CCCCC2)c2ccccc2)cc1 (stereo not shown) [Cloperastine hydrochloride]
fold induction at 50 µM (E. faecium; 50 μM final drug concentration, cutoff for positive-scoring molecules 3-fold increase, read-out: AK-based Prestwick Library Screening Results, E. faecium (fold increase in extracellular AK activity)): 1.1 | fold induction at 50 µM ([1]; 50 μM final drug concentration, cutoff for positive-scoring molecules 3-fold increase, read-out: AK-based Prestwick Library Screening Results, S. aureus (fold increase in extracellular AK activity)): 1.3 | fold induction at 50 µM (K. pneumoniae; 50 μM final drug concentration, cutoff for positive-scoring molecules 3-fold increase, read-out: AK-based Prestwick Library Screening Results, K. pneumoniae (fold increase in extracellular AK activity)): 1.2 | fold induction at 50 µM ([2]; 50 μM final drug concentration, cutoff for positive-scoring molecules 3-fold increase, read-out: AK-based Prestwick Library Screening Results, A. baumannii (fold increase in extracellular AK activity)): 1.4 | fold induction at 50 µM (P. aeruginosa; 50 μM final drug concentration, cutoff for positive-scoring molecules 3-fold increase, read-out: AK-based Prestwick Library Screening Results, P. aeruginosa (fold increase in extracellular AK activity)): 1.2 | fold induction at 50 µM (E. cloacae; 50 μM final drug concentration, cutoff for positive-scoring molecules 3-fold increase, read-out: AK-based Prestwick Library Screening Results, E. cloacae (fold increase in extracellular AK activity)): 2 | fold induction at 50 µM (E. coli; 50 μM final drug concentration, cutoff for positive-scoring molecules 3-fold increase, read-out: AK-based Prestwick Library Screening Results, E. coli (fold increase in extracellular AK activity)): 1.2

C#CCN(C)CCCOc1ccc(Cl)cc1Cl [Clorgyline hydrochloride]
fold induction at 50 µM (E. faecium; [3]): 0.7 | fold induction at 50 µM [1, 4]: 0.5 | fold induction at 50 µM (K. pneumoniae; [5]): 0.5 | fold induction at 50 µM [2, 6]: 0.6 | fold induction at 50 µM (P. aeruginosa; [7]): 0.7 | fold induction at 50 µM (E. cloacae; [8]): 0.8 | fold induction at 50 µM (E. coli; [9]): 0.7

Nc1cc(C(Cl)=C(Cl)Cl)c(S(N)(=O)=O)cc1S(N)(=O)=O [Clorsulon]
fold induction at 50 µM (E. faecium; 50 μM final drug concentration, planktonic, cutoff for positive 3-fold increase, read-out: AK-based Prestwick Library Screening Results, E. faecium (fold increase in extracellular AK activity)): 1.4 | fold induction at 50 µM ([1]; 50 μM final drug concentration, planktonic, cutoff for positive 3-fold increase, read-out: AK-based Prestwick Library Screening Results, S. aureus (fold increase in extracellular AK activity)): 1.5 | fold induction at 50 µM (K. pneumoniae; 50 μM final drug concentration, planktonic, cutoff for positive 3-fold increase, read-out: AK-based Prestwick Library Screening Results, K. pneumoniae (fold increase in extracellular AK activity)): 1 | fold induction at 50 µM ([2]; 50 μM final drug concentration, planktonic, cutoff for positive 3-fold increase, read-out: AK-based Prestwick Library Screening Results, A. baumannii (fold increase in extracellular AK activity)): 1 | fold induction at 50 µM (P. aeruginosa; 50 μM final drug concentration, planktonic, cutoff for positive 3-fold increase, read-out: AK-based Prestwick Library Screening Results, P. aeruginosa (fold increase in extracellular AK activity)): 1.1 | fold induction at 50 µM (E. cloacae; 50 μM final drug concentration, planktonic, cutoff for positive 3-fold increase, read-out: AK-based Prestwick Library Screening Results, E. cloacae (fold increase in extracellular AK activity)): 1.7 | fold induction at 50 µM (E. coli; 50 μM final drug concentration, planktonic, cutoff for positive 3-fold increase, read-out: AK-based Prestwick Library Screening Results, E. coli (fold increase in extracellular AK activity)): 1

Clc1ccccc1C(c1ccccc1)(c1ccccc1)n1ccnc1 [Clotrimazole]
fold induction at 50 µM (E. faecium; [10]): 1.3 | fold induction at 50 µM [1, 11]: 2 | fold induction at 50 µM (K. pneumoniae; [12]): 1 | fold induction at 50 µM [2, 13]: 3.3 | fold induction at 50 µM (P. aeruginosa; [14]): 1 | fold induction at 50 µM (E. cloacae; [15]): 1 | fold induction at 50 µM (E. coli; [16]): 1

Cc1onc(-c2ccccc2Cl)c1C(=O)N[C@@H]1C(=O)N2[C@@H]1SC(C)(C)[C@@H]2C(=O)O [Cloxacillin sodium salt]
fold induction at 50 µM (E. faecium; [10]): 1 | fold induction at 50 µM [1, 11]: 5.3 | fold induction at 50 µM (K. pneumoniae; [12]): 0.7 | fold induction at 50 µM [2, 13]: 1.3 | fold induction at 50 µM (P. aeruginosa; [14]): 1 | fold induction at 50 µM (E. cloacae; [15]): 1 | fold induction at 50 µM (E. coli; [16]): 1

CN1CCN(C2=Nc3cc(Cl)ccc3Nc3ccccc32)CC1 [Clozapine]
fold induction at 50 µM (E. faecium; [3]): 0.9 | fold induction at 50 µM [1, 4]: 0.7 | fold induction at 50 µM (K. pneumoniae; [5]): 0.8 | fold induction at 50 µM [2, 6]: 0.9 | fold induction at 50 µM (P. aeruginosa; [7]): 1 | fold induction at 50 µM (E. cloacae; [8]): 1 | fold induction at 50 µM (E. coli; [9]): 0.9

COc1cc2c(c(OC)c1OC)-c1ccc(OC)c(=O)cc1[C@@H](NC(C)=O)CC2 [Colchicine]
fold induction at 50 µM (E. faecium; read-out: AK-based Prestwick Library Screening Results, E. faecium (increase in extracellular AK activity)): 1 | fold induction at 50 µM ([1]; read-out: AK-based Prestwick Library Screening Results, S. aureus (increase in extracellular AK activity)): 1 | fold induction at 50 µM (K. pneumoniae; read-out: AK-based Prestwick Library Screening Results, K. pneumoniae (increase in extracellular AK activity)): 0.9 | fold induction at 50 µM ([2]; read-out: AK-based Prestwick Library Screening Results, A. baumannii (increase in extracellular AK activity)): 1 | fold induction at 50 µM (P. aeruginosa; read-out: AK-based Prestwick Library Screening Results, P. aeruginosa (increase in extracellular AK activity)): 1 | fold induction at 50 µM (E. cloacae; read-out: AK-based Prestwick Library Screening Results, E. cloacae (increase in extracellular AK activity)): 1.1 | fold induction at 50 µM (E. coli; read-out: AK-based Prestwick Library Screening Results, E. coli (increase in extracellular AK activity)): 1.2

Nc1ccccc1S(N)(=O)=O [Compound 2-Aminobenzenesulfonamide, 2-Aminobenzenesulfonamide]
fold induction at 50 µM (E. faecium; 50 μM final drug concentration, planktonic, cutoff for positive-scoring molecules 3-fold increase, read-out: AK-based Prestwick Library Screening Results, E. faecium (fold increase in extracellular AK activity)): 0.9 | fold induction at 50 µM ([1]; 50 μM final drug concentration, planktonic, cutoff for positive-scoring molecules 3-fold increase, read-out: AK-based Prestwick Library Screening Results, S. aureus (fold increase in extracellular AK activity)): 0.8 | fold induction at 50 µM (K. pneumoniae; 50 μM final drug concentration, planktonic, cutoff for positive-scoring molecules 3-fold increase, read-out: AK-based Prestwick Library Screening Results, K. pneumoniae (fold increase in extracellular AK activity)): 0.7 | fold induction at 50 µM ([2]; 50 μM final drug concentration, planktonic, cutoff for positive-scoring molecules 3-fold increase, read-out: AK-based Prestwick Library Screening Results, A. baumannii (fold increase in extracellular AK activity)): 0.9 | fold induction at 50 µM (P. aeruginosa; 50 μM final drug concentration, planktonic, cutoff for positive-scoring molecules 3-fold increase, read-out: AK-based Prestwick Library Screening Results, P. aeruginosa (fold increase in extracellular AK activity)): 0.9 | fold induction at 50 µM (E. cloacae; 50 μM final drug concentration, planktonic, cutoff for positive-scoring molecules 3-fold increase, read-out: AK-based Prestwick Library Screening Results, E. cloacae (fold increase in extracellular AK activity)): 1.4 | fold induction at 50 µM (E. coli; 50 μM final drug concentration, planktonic, cutoff for positive-scoring molecules 3-fold increase, read-out: AK-based Prestwick Library Screening Results, E. coli (fold increase in extracellular AK activity)): 1.1

Clc1cnccn1 [Compound 2-Chloropyrazine, 2-Chloropyrazine]
fold induction at 50 µM (E. faecium; planktonic E. faecium, 50 μM final drug concentration, positive cutoff 3-fold increase, read-out: AK-based Prestwick library screening result, E. faecium (fold increase in extracellular AK activity)): 1.1 | fold induction at 50 µM ([1]; planktonic S. aureus, 50 μM final drug concentration, positive cutoff 3-fold increase, read-out: AK-based Prestwick library screening result, S. aureus (fold increase in extracellular AK activity)): 1.1 | fold induction at 50 µM (K. pneumoniae; planktonic K. pneumoniae, 50 μM final drug concentration, positive cutoff 3-fold increase, read-out: AK-based Prestwick library screening result, K. pneumoniae (fold increase in extracellular AK activity)): 0.9 | fold induction at 50 µM ([2]; planktonic A. baumannii, 50 μM final drug concentration, positive cutoff 3-fold increase, read-out: AK-based Prestwick library screening result, A. baumannii (fold increase in extracellular AK activity)): 1.2 | fold induction at 50 µM (P. aeruginosa; planktonic P. aeruginosa, 50 μM final drug concentration, positive cutoff 3-fold increase, read-out: AK-based Prestwick library screening result, P. aeruginosa (fold increase in extracellular AK activity)): 1 | fold induction at 50 µM (E. cloacae; planktonic E. cloacae, 50 μM final drug concentration, positive cutoff 3-fold increase, read-out: AK-based Prestwick library screening result, E. cloacae (fold increase in extracellular AK activity)): 1.4 | fold induction at 50 µM (E. coli; planktonic E. coli, 50 μM final drug concentration, positive cutoff 3-fold increase, read-out: AK-based Prestwick library screening result, E. coli (fold increase in extracellular AK activity)): 1
